The values below come from article PMC5332327 (Journal of the American Chemical Society, 2017).

The target in this assay is Nan[KS1][AT1] (Streptomyces nanchangensis, UniProt Q7WTF5). Briefly: coupled KS-KR assay, chiral GC-MS of diketide methyl ester. It counts as biochemical. The note with it: holo-NanACP1, NADPH, KR domain, pH 7.2.
Chain of Nan[KS1][AT1] (Q7WTF5 1029-1965): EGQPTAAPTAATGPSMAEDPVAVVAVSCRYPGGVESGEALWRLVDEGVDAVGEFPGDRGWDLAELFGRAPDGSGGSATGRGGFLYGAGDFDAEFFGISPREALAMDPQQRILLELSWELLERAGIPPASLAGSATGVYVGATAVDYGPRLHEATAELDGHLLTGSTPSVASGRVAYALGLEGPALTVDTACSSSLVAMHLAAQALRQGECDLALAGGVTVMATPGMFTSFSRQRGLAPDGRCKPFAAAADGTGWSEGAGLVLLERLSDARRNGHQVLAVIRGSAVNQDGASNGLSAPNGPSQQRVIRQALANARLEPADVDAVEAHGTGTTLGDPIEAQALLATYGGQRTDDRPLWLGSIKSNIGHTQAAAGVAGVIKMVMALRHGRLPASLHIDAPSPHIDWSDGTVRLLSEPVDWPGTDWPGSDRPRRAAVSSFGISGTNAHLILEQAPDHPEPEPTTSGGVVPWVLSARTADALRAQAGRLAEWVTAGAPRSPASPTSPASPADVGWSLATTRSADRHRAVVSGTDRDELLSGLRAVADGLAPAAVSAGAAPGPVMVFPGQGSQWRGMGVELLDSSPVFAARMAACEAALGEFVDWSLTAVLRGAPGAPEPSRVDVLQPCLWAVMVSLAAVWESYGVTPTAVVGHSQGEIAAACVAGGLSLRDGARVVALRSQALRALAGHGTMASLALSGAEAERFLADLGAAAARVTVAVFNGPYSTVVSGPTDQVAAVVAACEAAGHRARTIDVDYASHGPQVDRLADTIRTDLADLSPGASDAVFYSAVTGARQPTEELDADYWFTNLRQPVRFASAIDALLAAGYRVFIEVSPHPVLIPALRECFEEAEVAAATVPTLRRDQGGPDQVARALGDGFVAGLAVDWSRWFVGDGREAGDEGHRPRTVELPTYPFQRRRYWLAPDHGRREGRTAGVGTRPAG

Turning to `CCC(=O)SCCNC(C)=O` [propionyl-SNAC], where the note is “5 mM propionyl-SNAC, methylmalonyl-CoA, primer”, the “coupled KS-KR assay, chiral GC-MS of diketide methyl ester” value is “condensation between propionyl-SNAC and methylmalonyl-CoA catalyzed by the polyether synthase didomain Nan[KS1][AT1]”.

With `CC(C(=O)O)C(=O)SCCNC(=O)CCNC(=O)[C@H](O)C(C)(C)COP(=O)(O)OP(=O)(O)OC[C@H]1O[C@@H](n2cnc3c(N)ncnc32)[C@H](O)[C@@H]1OP(=O)(O)O` (some centres unmarked) [methylmalonyl-CoA], the “coupled KS-KR assay, chiral GC-MS of diketide methyl ester” value (300 uM methylmalonyl-CoA, propionyl-SNAC, extender) is “condensation between propionyl-SNAC and methylmalonyl-CoA catalyzed by the polyether synthase didomain Nan[KS1][AT1]”.
